{"source": "patent US20260318831A1", "about": "(University of Cincinnati, priority 2023, published 2026)", "key": {"[1]": {"experiment": "UV-visible absorption of PyQPMe in aqueous buffers pH 4.0-8.0", "type": "physicochemical", "text": "In some aspects, the fluorescence of the probe changes as the pH of an endolysosome changes, such as between a pH range of about 8.0 to about 2.0. With the designed probe PyQPMe in hand, its UV-visible absorption was screened in aqueous buffers with a pH range of 8.0 to 4.0. […] Simultaneously, a new absorption maximum at 447 nm (ε=27,264 M^−1 cm^−1) rises with its tail exceeding 600 nm in pH 4.0 buffer solution. […] In addition, the fluorescence intensities of PyQPMe used for different imaging channels of the microscope were compared, where the wavelengths of 500 nm and 645 nm represent the green and red channels, respectively. When the buffer solution is much more acidic, the fluorescence intensity ratio of I645 nm/I500 nm is higher than 1 (FIG. 2C), indicating red color dominates the fluorescence of PyQPMe. Conversely, with increasing the pH value, green fluorescence light is becoming the predominant color for imaging.\nPhosphate buffer solution. A series of standard pH buffer solutions were prepared by mixing 0.2 M Na2HPO4·7H2O, 0.2 M KH2PO4, and 0.2 M H3PO4 with varied volume ratios, and the pH values were measured by using a Mettler Toledo pH-meter.\nAbsorption and emission measurements. 3.0 mL phosphate buffer solution and 6.44 μL probe stock solution (4.66 mM) were mixed well, and an appropriate portion of the solution was transferred to a quartz cell with 1 cm optical length to collect the absorption spectra on an Agilent Cary 453 spectrophotometer. The fluorescence spectra were recorded on a HORIBA Fluorolog QM spectrofluorometer."}, "[2]": {"experiment": "Effect of potential biochemical species on fluorescence intensity", "type": "physicochemical", "settings": "pH 3.0 or 8.2; cations, anions, H2O2, Cys, Hcy, GSH", "text": "Next, the effect of potential biochemical species on the fluorescence intensity of PyQPMe in both pH 3.0 and 8.2 buffer solutions was investigated. […] Fluorescence spectra of PyQPMe in various solvents with different polarities were also obtained. […] Furthermore, the photostability of PyQPMe was investigated under different pH conditions. […] Taken together, the above photophysical results identify that PyQPMe is a pH-sensitive probe, well suited for studying endolysosome dynamics via high-resolution imaging techniques."}, "HeLa cells": {"test_system": "HeLa cells", "experiment": "CCK-8 cell viability and cytotoxicity assay", "type": "cell-based", "settings": "within 24 h incubation, 0~10 μM", "description": "In some aspects, the probes of the present disclosure can be administered to living cells, either in vitro or in vivo. To take advantage of the absorption and emission spectra of PyQPMe, this probe was administered in high-resolution microscopy for living cells. The toxicity of PyQPMe was examined at first before characterizing its imaging properties. Cell Counting Kit-8 (CCK-8) was used to investigate the viability of HeLa cells stained with PyQPMe. […] Next, PyQPMe was characterized by Leica Stellaris Confocal Microscope in the LIGHTNING module for high-resolution imaging. […] The signal tended to be endolysosomes because endolysosomes have a low pH range from 4.7 to 6.3. […] Since low temperatures can inhibit endocytosis, experiments at a lower temperature were performed.\nCell viability and cytotoxicity assay. […] The viability was determined by adding 10 μL reagent from a cell counting kit-8 (CCK-8) (Dojindo Molecular Technologies, Inc.) and incubating at 37° C. for 1 h. CCK-8 solution was added to each well and the OD value for each well was read at wavelength 490 nm on a microplate reader (BioTek Instruments, Inc., USA). The interference of absorbance from PyQPMe at 490 nm was minimal compared to the CCK-8 reagent during measurement."}, "[3]": {"test_system": "endolysosomes in HeLa cells", "experiment": "Dual-channel confocal imaging of PyQPMe-stained endolysosomes, co-stained with LTDR", "type": "cell-based", "description": "Next, imaging studies of PyQPMe were performed under a dual channel mode with the same excitation of 405 nm (green channel, emission range of 470-530 nm; red channel, emission range of 610-680 nm). Due to the strong green emission properties of PyQPMe over a wide pH range, many puncta fluorescence appeared throughout the cell in the green channel image (FIG. 3A). While in the red channel image, there is less puncta fluorescence in the cell because PyQPMe only emits red light at pH values below 6. Therefore, this imaging property of PyQPMe at different channels can guide one to track different stages of endocytosis. Images were randomly zoomed in and their fluorescence intensity was compared. […] Further, the average diameter of PyQPMe red spots is around 0.6 μm, which is in line with the reported size of lysosomes. To further verify the targeting ability of PyQPMe, the cells were co-stained with commercial lysosome dye Lyso-Tracker Deep Red (LTDR) and imaged under a deep red channel (excitation of 640 nm, emission range of 690-740 nm).\nLeica Stellaris 8 Confocal imaging. High-resolution images were acquired on a commercial Leica Stellaris 8 Confocal Microscope under LIGHTNING mode. Laser powers were set at 10% intensity for 405 nm and 640 nm channels. The objective was 63×/1.4. High-resolution images were captured from the randomly selected field of view and analyzed with Leica LAS X and ImageJ software. All the images were exported on the Auto scale of the Leica LAS X software. Cells were seeded on glassed-bottomed cell dishes (MatTek) for 24 hours. Cells stained with PyQPMe (20 nM, 10 min) were treated with Wortmannin (1 μM, 24 h), CCCP ([…], 24 h), rapamycin (0.5 μM, 24 h), chloroquine (25 μM, 30 min), and NH4Cl (50 mM, 30 min). All PCC values were analyzed in the CellProfiler."}}}
{"smiles": "CN1CCN(c2ccc(/C=C/c3ccc4cc(-c5ccncc5)ccc4[n+]3C)cc2)CC1", "note": "[PyQPMe, (E)-1-methyl-2-(4-(4-methylpiperazin-1-yl)styryl)-6-(pyridin-4-yl)quinolin-1-ium]", "values": [{"measurement": "pKa", "setting": "[1]; aqueous buffers, from absorption at 394 and 447 nm, pH 8.0 to 4.0, read-out: apparent pKa value", "value": "~5"}, {"measurement": "absorption maximum", "setting": "[1]; neutral condition", "value": 394, "unit": "nm"}, {"measurement": "ε at absorption maximum 394 nm", "setting": "[1]; neutral condition", "value": "34,147 M^−1cm^−1"}, {"measurement": "new absorption maximum", "setting": "[1]; pH 4.0 buffer solution", "value": 447, "unit": "nm"}, {"measurement": "ε at absorption maximum 447 nm", "setting": "[1]; pH 4.0 buffer solution", "value": "27,264 M^−1 cm^−1"}, {"measurement": "effect of interfering substances on emission intensity", "setting": "[2]", "value": "none of these interfering substances could quench the emission intensity"}, {"measurement": "effect on viability of HeLa cells", "setting": "HeLa cells", "value": "no effects on the viability of HeLa cells"}, {"measurement": "ratio of red to green fluorescence intensity, early endosomes", "setting": "[3]; ex 405 nm, early endosomes", "value": "very low ratio of red to green fluorescence intensity"}, {"measurement": "ratio of red to green fluorescence intensity, late endosomes/lysosomes", "setting": "[3]; ex 405 nm, late endosomes/lysosomes", "value": "higher than 1"}, {"measurement": "PCC with LTDR, green channel", "setting": "[3]; green channel particles vs deep red channel of LTDR", "value": 0.46}, {"measurement": "average diameter of red spots", "setting": "[3]; red channel", "value": "around 0.6 μm"}, {"measurement": "Pearson correlation coefficient (PCC) with LTDR, red channel", "setting": "[3]; red channel puncta vs deep red channel of LTDR", "value": "about 0.70"}, {"measurement": "pH below which red light is emitted", "setting": "[3]; red channel, 610-680 nm", "value": "below 6"}]}
